{"source": "patent US7473688B2", "about": "“Indolobenzazepine HCV NS5B inhibitors” (Bristol-Myers Squibb Company, priority 2005, dated 2009)", "key": {"[1]": {"molecular_target": "T1, HCV NS5B (Hepatitis C virus genotype 1b, UniProt Q9WMX2)", "T1 construct": "The protein was expressed with an 18 amino acid C-terminal truncation to enhance the solubility; made in house; host or cells: E. coli BL21 (DE3), pET21a", "T1 sequence (Q9WMX2 2420-2992)": "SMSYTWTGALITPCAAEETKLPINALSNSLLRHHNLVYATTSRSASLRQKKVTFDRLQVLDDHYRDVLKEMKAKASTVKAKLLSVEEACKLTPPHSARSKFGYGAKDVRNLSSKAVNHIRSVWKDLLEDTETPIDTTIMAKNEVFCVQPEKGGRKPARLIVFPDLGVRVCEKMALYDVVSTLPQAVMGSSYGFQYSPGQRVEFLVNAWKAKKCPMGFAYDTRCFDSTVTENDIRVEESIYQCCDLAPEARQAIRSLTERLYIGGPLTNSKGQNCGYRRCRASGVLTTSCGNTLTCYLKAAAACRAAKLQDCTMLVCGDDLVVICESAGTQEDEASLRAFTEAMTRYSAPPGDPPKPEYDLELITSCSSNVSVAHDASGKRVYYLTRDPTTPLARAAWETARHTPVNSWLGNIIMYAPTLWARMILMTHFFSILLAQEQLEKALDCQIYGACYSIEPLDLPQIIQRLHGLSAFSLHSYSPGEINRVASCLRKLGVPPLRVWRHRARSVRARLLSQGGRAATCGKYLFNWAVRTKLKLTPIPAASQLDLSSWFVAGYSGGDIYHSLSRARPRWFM", "assay": "HCV NS5B RdRp enzyme assay (preincubation protocol)", "format": "biochemical", "details": "Table 1, read-out: IC50*", "in_short": "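Preincubation format: enzyme (14 nM, genotype 1b, 18-residue C-terminal truncation) meets diluted compound first; reaction started with bead-bound biotinylated dT12 primer, polyA template 0.2 nM and 0.29 μM 3H-UTP. Run 4 h, 30 °C in Hepes pH 7.5; scintillation proximity signal; IC50 fitted from seven inhibitor levels.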"}, "[2]": {"system": "HCV replicon", "assay": "HCV replicon FRET assay", "format": "cell-based", "details": "Hepatitis C virus, Table 1; FRET assay; read-out: EC50*", "in_short": "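HCV replicon cells, with or without Renilla luciferase reporter, incubated with titrated compounds at 37 °C; Alamar blue read for cytotoxicity. NS3 protease activity read from lysates with 20 μM EDANS/DABCYL FRET peptide (340/490 nm, kinetic), or by Dual-Glo luciferase. Background from highest protease-inhibitor wells; EC50 = 50% signal reduction.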"}}, "data": [{"molecule": "CC(C)(C)OC(=O)N1CCN(C(=O)C2=Cc3ccccc3-c3c(C4CCCCC4)c4ccc(C(=O)O)cc4n3C2)CC1", "values": [{"measurement": "IC50", "setting": "[1]", "result": "10 to 1000", "unit": "nM"}, {"measurement": "EC50", "setting": "[2]", "result": "70 to 1000", "unit": "nM"}]}, {"molecule": "C[C@@H]1CN(C(=O)c2ccccc2)CCN1C(=O)C1=Cc2ccccc2-c2c(C3CCCCC3)c3ccc(C(=O)O)cc3n2C1", "values": [{"measurement": "IC50", "setting": "[1]", "result": "10 to 1000", "unit": "nM"}, {"measurement": "EC50", "setting": "[2]", "result": "70 to 1000", "unit": "nM"}]}, {"molecule": "O=C(O)c1ccc2c(C3CCCCC3)c3n(c2c1)CC(C(=O)N1CCN(C(=O)N2CCOCC2)CC1)=Cc1ccccc1-3", "values": [{"measurement": "IC50", "setting": "[1]", "result": "10 to 1000", "unit": "nM"}, {"measurement": "EC50", "setting": "[2]", "result": "70 to 1000", "unit": "nM"}]}, {"molecule": "Cc1ccc(S(=O)(=O)N2CCN(C(=O)C3=Cc4ccccc4-c4c(C5CCCCC5)c5ccc(C(=O)NS(=O)(=O)N(C)C)cc5n4C3)CC2)cc1", "values": [{"measurement": "IC50", "setting": "[1]", "result": "10 to 1000", "unit": "nM"}, {"measurement": "EC50", "setting": "[2]", "result": "70 to 1000", "unit": "nM"}]}, {"molecule": "CC1CN(C(=O)OC(C)(C)C)CCN1C(=O)C1=Cc2ccccc2-c2c(C3CCCCC3)c3ccc(C(=O)NS(=O)(=O)N(C)C)cc3n2C1", "note": "(stereo not drawn)", "values": [{"measurement": "IC50", "setting": "[1]", "result": "10 to 1000", "unit": "nM"}, {"measurement": "EC50", "setting": "[2]", "result": "70 to 1000", "unit": "nM"}]}, {"molecule": "COc1ccc(S(=O)(=O)N2CCN(C(=O)C3=Cc4ccccc4-c4c(C5CCCCC5)c5ccc(C(=O)NS(=O)(=O)N(C)C)cc5n4C3)CC2)cc1", "values": [{"measurement": "IC50", "setting": "[1]", "result": "10 to 1000", "unit": "nM"}, {"measurement": "EC50", "setting": "[2]", "result": "70 to 1000", "unit": "nM"}]}, {"molecule": "CCOC(=O)CN1CCN(C(=O)C2=Cc3ccccc3-c3c(C4CCCCC4)c4ccc(C(=O)NS(=O)(=O)N(C)C)cc4n3C2)CC1", "values": [{"measurement": "IC50", "setting": "[1]", "result": "10 to 1000", "unit": "nM"}, {"measurement": "EC50", "setting": "[2]", "result": "70 to 1000", "unit": "nM"}]}, {"molecule": "CN(C)S(=O)(=O)NC(=O)c1ccc2c(C3CCCCC3)c3n(c2c1)CC(C(=O)N1CCN(CC(=O)N2CCOCC2)CC1)=Cc1ccccc1-3", "values": [{"measurement": "IC50", "setting": "[1]", "result": "10 to 1000", "unit": "nM"}, {"measurement": "EC50", "setting": "[2]", "result": "70 to 1000", "unit": "nM"}]}, {"molecule": "CN(C)S(=O)(=O)NC(=O)c1ccc2c(C3CCCCC3)c3n(c2c1)CC(C(=O)N1CCN(C(=O)C2COc4ccccc4O2)CC1)=Cc1ccccc1-3", "note": "(stereo not drawn)", "values": [{"measurement": "IC50", "setting": "[1]", "result": "10 to 1000", "unit": "nM"}, {"measurement": "EC50", "setting": "[2]", "result": "70 to 1000", "unit": "nM"}]}, {"molecule": "COCCN1CCN(C(=O)C2=Cc3ccccc3-c3c(C4CCCCC4)c4ccc(C(=O)NS(=O)(=O)N(C)C)cc4n3C2)CC1", "values": [{"measurement": "IC50", "setting": "[1]", "result": "10 to 1000", "unit": "nM"}, {"measurement": "EC50", "setting": "[2]", "result": "70 to 1000", "unit": "nM"}]}, {"molecule": "CCS(=O)(=O)N1CCN(C(=O)C2=Cc3ccccc3-c3c(C4CCCCC4)c4ccc(C(=O)NS(=O)(=O)N(C)C)cc4n3C2)CC1", "values": [{"measurement": "IC50", "setting": "[1]", "result": "10 to 1000", "unit": "nM"}, {"measurement": "EC50", "setting": "[2]", "result": "70 to 1000", "unit": "nM"}]}, {"molecule": "CN(C)S(=O)(=O)NC(=O)c1ccc2c(C3CCCCC3)c3n(c2c1)CC(C(=O)N1CCN2C(=O)c4ccccc4CC2C1)=Cc1ccccc1-3", "note": "(stereo not drawn)", "values": [{"measurement": "IC50", "setting": "[1]", "result": "10 to 1000", "unit": "nM"}, {"measurement": "EC50", "setting": "[2]", "result": "70 to 1000", "unit": "nM"}]}, {"molecule": "CN(C)S(=O)(=O)NC(=O)c1ccc2c(C3CCCCC3)c3n(c2c1)CC(C(=O)N1CCN(S(=O)(=O)c2ccccc2)CC1)=Cc1ccccc1-3", "values": [{"measurement": "IC50", "setting": "[1]", "result": "10 to 1000", "unit": "nM"}, {"measurement": "EC50", "setting": "[2]", "result": "70 to 1000", "unit": "nM"}]}, {"molecule": "CN(C)S(=O)(=O)NC(=O)c1ccc2c(C3CCCCC3)c3n(c2c1)CC(C(=O)N1CCN(C(=O)C2CC2)CC1)=Cc1ccccc1-3", "values": [{"measurement": "IC50", "setting": "[1]", "result": "10 to 1000", "unit": "nM"}, {"measurement": "EC50", "setting": "[2]", "result": "70 to 1000", "unit": "nM"}]}, {"molecule": "COc1ccc2c(c1)C=C(C(=O)N1CCN(S(C)(=O)=O)CC1)Cn1c-2c(C2CCCCC2)c2ccc(C(=O)NS(=O)(=O)N(C)C)cc21", "values": [{"measurement": "IC50", "setting": "[1]", "result": "10 to 1000", "unit": "nM"}, {"measurement": "EC50", "setting": "[2]", "result": "70 to 1000", "unit": "nM"}]}, {"molecule": "COc1ccc2c(c1)C=C(C(=O)N1CCN(S(=O)(=O)N(C)C)CC1)Cn1c-2c(C2CCCCC2)c2ccc(C(=O)NS(=O)(=O)N(C)C)cc21", "values": [{"measurement": "IC50", "setting": "[1]", "result": "10 to 1000", "unit": "nM"}, {"measurement": "EC50", "setting": "[2]", "result": "70 to 1000", "unit": "nM"}]}, {"molecule": "CN(C)S(=O)(=O)NC(=O)c1ccc2c(C3CCCCC3)c3n(c2c1)CC(C(=O)N1CCN(S(C)(=O)=O)CC1)=Cc1cc(OCc2ccccc2)ccc1-3", "values": [{"measurement": "IC50", "setting": "[1]", "result": "10 to 1000", "unit": "nM"}, {"measurement": "EC50", "setting": "[2]", "result": "70 to 1000", "unit": "nM"}]}, {"molecule": "CC(=O)OCC(=O)N1CCN(C(=O)C2=Cc3ccccc3-c3c(C4CCCCC4)c4ccc(C(=O)NS(=O)(=O)N5CCOCC5)cc4n3C2)CC1", "values": [{"measurement": "IC50", "setting": "[1]", "result": "10 to 1000", "unit": "nM"}, {"measurement": "EC50", "setting": "[2]", "result": "70 to 1000", "unit": "nM"}]}, {"molecule": "CN(C)S(=O)(=O)NC(=O)c1ccc2c(C3CCCCC3)c3n(c2c1)CC(C(=O)N1CCN(c2nccs2)CC1)=Cc1ccccc1-3", "values": [{"measurement": "IC50", "setting": "[1]", "result": "10 to 1000", "unit": "nM"}, {"measurement": "EC50", "setting": "[2]", "result": "70 to 1000", "unit": "nM"}]}, {"molecule": "CN(C)S(=O)(=O)NC(=O)c1ccc2c(C3CCCCC3)c3n(c2c1)CC(C(=O)N1CCn2cnnc2C1)=Cc1ccccc1-3", "values": [{"measurement": "IC50", "setting": "[1]", "result": "10 to 1000", "unit": "nM"}, {"measurement": "EC50", "setting": "[2]", "result": "1000 to 10000", "unit": "nM"}]}, {"molecule": "CN(C)S(=O)(=O)NC(=O)c1ccc2c(C3CCCCC3)c3n(c2c1)CC(C(=O)N1CCN(c2ncncn2)CC1)=Cc1ccccc1-3", "values": [{"measurement": "IC50", "setting": "[1]", "result": "10 to 1000", "unit": "nM"}, {"measurement": "EC50", "setting": "[2]", "result": "70 to 1000", "unit": "nM"}]}, {"molecule": "CC(=O)N1CCN(C(=O)C2Cc3ccccc3-c3c(C4CCCCC4)c4ccc(C(=O)NS(=O)(=O)N(C)C)cc4n3C2)CC1", "note": "(stereo not drawn)", "values": [{"measurement": "IC50", "setting": "[1]", "result": "10 to 1000", "unit": "nM"}, {"measurement": "EC50", "setting": "[2]", "result": "70 to 1000", "unit": "nM"}]}, {"molecule": "CN(C)S(=O)(=O)NC(=O)c1ccc2c(C3CCCCC3)c3n(c2c1)CC(C(=O)N1CCN(S(C)(=O)=O)CC1)Cc1ccccc1-3", "note": "(stereo not drawn)", "values": [{"measurement": "IC50", "setting": "[1]", "result": "10 to 1000", "unit": "nM"}, {"measurement": "EC50", "setting": "[2]", "result": "70 to 1000", "unit": "nM"}]}, {"molecule": "O=C1Cn2c(c(C3CCCCC3)c3ccc(C(=O)NS(=O)(=O)N4CCOCC4)cc32)-c2ccccc2N1", "values": [{"measurement": "IC50", "setting": "[1]", "result": "10 to 1000", "unit": "nM"}, {"measurement": "EC50", "setting": "[2]", "result": "70 to 1000", "unit": "nM"}]}, {"molecule": "O=C(NS(=O)(=O)C(F)(F)F)c1ccc2c(C3CCCCC3)c3n(c2c1)CC(C(=O)N1CCOCC1)=Cc1ccccc1-3", "values": [{"measurement": "IC50", "setting": "[1]", "result": "10 to 1000", "unit": "nM"}, {"measurement": "EC50", "setting": "[2]", "result": "1000 to 10000", "unit": "nM"}]}, {"molecule": "O=C(NS(=O)(=O)C(F)(F)F)c1ccc2c(C3CCCCC3)c3n(c2c1)CC(C(=O)N1CCOCC1)Cc1ccccc1-3", "note": "(stereo not drawn)", "values": [{"measurement": "IC50", "setting": "[1]", "result": "10 to 1000", "unit": "nM"}, {"measurement": "EC50", "setting": "[2]", "result": "70 to 1000", "unit": "nM"}]}, {"molecule": "O=C(NS(=O)(=O)N1CCOCC1)c1ccc2c(C3CCCCC3)c3n(c2c1)CC(C(=O)N1CCOCC1)=Cc1ccccc1-3", "values": [{"measurement": "IC50", "setting": "[1]", "result": "10 to 1000", "unit": "nM"}, {"measurement": "EC50", "setting": "[2]", "result": "70 to 1000", "unit": "nM"}]}]}
